How the values were obtained:
Format in all cases: cell-based, human
[1] = tested on: induced senescent HEF cell; assay: In vitro compound screening, cell viability test (CCK-8); details: HEF-ETO, Figure 1C
[2] = tested on: induced senescent A549 cell; assay: as above; details: for senescent cell killing activity and selectivity in vitro (screening): induced senescent A549 cell model, Figure 1A
non-senescent A549 cells = assay: Cell killing activity assay (CCK-8), Example 7; details: 25 µM
Experimental: (§1) Preparation of the cell plates: The non-senescent, and the induced senescent HEF cells and A549 cells were taken respectively, digested with trypsin, and centrifuged at 1000 rmp for 5 minutes. The supernatants were removed, and the cells were resuspended in fresh DMEM medium containing 10% foetal bovine serum for counting. The cell density was adjusted so that the density of the non-senescent cells was at 4000 cells/100 µL and the density of the senescent cells was at 7000 cells/100 µL. The cell suspension was added to the 96-well transparent cell culture plates at 100 µL per well. Note that the edge wells of the 96-well plate were not used for the test wells, and 300 µL PBS is added separately to reduce the medium evaporation. The cell-spread 96-well plates were put back into the incubator at 37°C for the overnight incubation until the cells adhered to the wall.
(§2) Formulation of the drug concentration gradients: After the cells adhered to the wall on the second day, the small molecule compounds (d-12, d-11, and d-4) to be tested for activity are ready to be added. […] 3 parallel replicate wells were set up for each test drug concentration. The 96-well plate was put back into the incubator at 37°C, and the cell survival was tested after three days.
(§3) Detection of the cell survival after the drug treatment using the CCK-8 method: Three days after the addition of the drug, the well plate was removed, the supernatant was discarded, and 100 µL of the pre-prepared CCK-8 working solution was added to each well. The CCK-8 working solution was obtained by diluting the CCK8 stock solution (C0041, Beyotime) with the serum-free DMEM medium in 10-fold volume. The 96-well plate added with the CCK-8 working solution was put back to the incubator at 37°C and incubated for 0.5-2 hours. The plate was taken out to determine the absorbance value (OD value) of each well at the wavelength of 450 nm. The cell viability in each experimental group was calculated. The following formula was used: the relative cell viability (%) = […] x 100 %.

senescent A549 cells = assay: Cell killing activity assay (CCK-8), Example 7; details: three days; for selective killing of the senescent cells: A549-induced senescence cell model, up to 25 µM
Experimental: as §1, §2, §3

senescent HEF cells = assay: Cell killing activity assay (CCK-8), Example 7; details: HEF-induced senescence cell model, up to 25 µM, three days
Experimental: as §1, §2, §3

non-senescent HEF cells = assay: Cell killing activity assay (CCK-8), Example 7; details: 25 µM
Experimental: as §1, §2, §3

SMILES	senescent cell killing activity and selectivity in vitro (screening) [2]	killing of the non-senescent cells at the highest concentration (non-senescent A549 cells)	selective killing of the senescent cells (senescent A549 cells)	selective killing of the senescent cells (senescent HEF cells)	killing of the non-senescent cells at the highest concentration (non-senescent HEF cells)	other results
CN(C)CC#Cc1ccc(OCCCc2sc(N3CCc4cccc(C(=O)Nc5nc6ccccc6s5)c4C3)nc2C(=O)O)c(F)c1 [A1155463]	good senescent cell killing activity and selectivity in vitro					killing activity on the senescent cells compared with ABT-263 [1]: higher than that of the classical small molecule inhibitor ABT-263; killing activity on the senescent cells compared with ABT-263 ([2]; A549-CDDP, Figure 1B): higher than that of the classical small molecule inhibitor ABT-263
Cc1sc2c(c1C)C(c1ccc(Cl)cc1)=N[C@@H](CC(=O)Nc1ccc(OCCOCCOCCOCCNc3cccc4c3C(=O)N(C3CCC(=O)NC3=O)C4=O)cc1)c1nnc(C)n1-2 (stereo partly drawn) [ARV825]	better in vitro killing activity					
Cc1ncsc1-c1ccc(CNC(=O)[C@@H]2C[C@@H](O)CN2C(=O)[C@@H](NC(=O)COCCOCCOCCNC(=O)C[C@@H]2N=C(c3ccc(Cl)cc3)c3c(sc(C)c3C)-n3c(C)nnc32)C(C)(C)C)cc1 [MZ1]	better in vitro killing activity					
CC(=O)OC[C@H]1O[C@@H](Oc2ccc(C(Cc3cn(CCCN4CCOCC4)nn3)OC(=O)c3nc(N4CCc5cccc(C(=O)Nc6nc7ccccc7s6)c5C4)ccc3-c3cnn(CC45CC6CC(CC(C6)C4)C5)c3C)cc2[N+](=O)[O-])[C@H](OC(C)=O)[C@@H](OC(C)=O)[C@H]1OC(C)=O (stereo partly drawn) [d-11]		none of the three molecules killed the non-senescent cells	selective killing of the senescent cells	selective killing of the senescent cells	none of the three molecules killed the non-senescent cells	
Cc1c(-c2ccc(N3CCc4cccc(C(=O)Nc5nc6ccccc6s5)c4C3)nc2C(=O)OC(Cc2cn(CCCN3CCOCC3)nn2)c2ccc(O[C@@H]3O[C@H](CO)[C@H](O)[C@H](O)[C@H]3O)c([N+](=O)[O-])c2)cnn1CC12CC3CC(CC(C3)C1)C2 (stereo partly drawn) [d-12]		none of the three molecules killed the non-senescent cells	selective killing of the senescent cells	selective killing of the senescent cells	none of the three molecules killed the non-senescent cells	IC50 (senescent A549 cells; Cisplatin-induced senescent A549 cells, CCK-8): ~6.9 µM
Cc1sc2c(c1C)C(c1ccc(Cl)cc1)=N[C@@H](CC(=O)NCCCCCCCCNC(=O)COc1cccc3c1C(=O)N(C1CCC(=O)NC1=O)C3=O)c1nnc(C)n1-2 (stereo partly drawn) [dBET6]	better in vitro killing activity					

From patent EP4574175A1, “PRODRUG FOR ANTI-AGING RELATED DISEASES AND USE METHOD THEREFOR” (BEIJING SUNCELL BIO-MEDICAL CO., LTD., priority 2022, dated 2024)
